Laboratory results taken from patent US12178981B2, “Drug administration method” (Takeda Pharmaceutical Company Limited, priority 2017, dated 2024).

Legend:
[1] = tested on: brain tissue; conditions: ddY mice; nano-bubbles (about 400 nm) and 5-FU in combination; brain tissue exposed to ultrasound; cited from earlier work
[2] = tested on: BBB Kit™ (RBT-24H); test: BBB permeation experiment of fluorescein using BBB Kit (Example 1); format: in vitro ADME; conditions: nano-bubble water (PS80); ultrasound exposure at not less than 100 mW/cm^2
Description: (§1) Using this D-PBS, fluorescein (fluorescein sodium manufactured by Wako Pure Chemical Industries, Code No. 213-00092) was dissolved to prepare a fluorescein stock solution.
(§2) The permeability coefficient (Papp) was calculated from the measured fluorescein concentration, and the intracerebral transferability of fluorescein (BBB permeability) was calculated.
(§3) • fluorescence wavelength: 520 nm • excitation wavelength: 480 nm • flash number: 6 times

[3] = as above; format: in vitro ADME; conditions: rat, 2 hr, read-out: permeability coefficient (Papp)
Description: as §1, §2, §3

[4] = tested on: BBB Kit™ (RBT-24H); test: BBB permeation experiment of fluorescein using BBB Kit, two nano-bubble waters (Example 4); format: in vitro ADME; conditions: culture medium A (Reference Example 1) and culture medium B (Reference Example 2); ultrasound exposure at not less than 100 mW/cm^2
Description: (§4) In addition, the fluorescein stock solution and the nano-bubble water prepared in Reference Example 2 were diluted with D-PBS such that the fluorescein concentration was 1 μM and nano-bubble density was 2×10^8 bubbles to prepare a culture solution B (volume: 500 μL) (n=2).
as §2

[5] = as above; format: in vitro ADME; conditions: rat, 2 hr, read-out: permeability coefficient (Papp)
Description: as §4, §2

[6] = tested on: BBB; test: BBB permeation experiment of FITC dextran using rat (Example 6); conditions: ultrasound exposure using nano-bubble water of Reference Example 1
Description: The administration solution (0.4 mL) was injected into the rat tail vein at 1 mL/min using an injection tube and a needle of appropriate sizes (both sterilized disposable products). Using an ultrasound gene transfer apparatus (Sonitron GTS) manufactured by Nepa Gene Co., Ltd., exposure was performed for 60 sec at frequency 1 MHz and ultrasound intensity 2 W/cm^2 (n=3).
• fluorescence wavelength: 520 nm • excitation wavelength: 494 nm • flash number: 6 times

[7] = control: fluorescein 1 μM in D-PBS without nano-bubble water

In the case of O=c1[nH]cc(F)c(=O)[nH]1 [5-FU, fluorouracil], the “duration for which transfer into the brain was observed” value [1] is listed as “at least 24 hr”.

With O=C1OC2(c3ccc(O)cc3Oc3cc(O)ccc32)c2ccccc21 [fluorescein, fluorescein sodium] the “BBB permeability compared with the control” value [2] was “clear promotion of BBB permeability”, the Papp at 2 h, 1 μM [3, 7] was 0.574 ×10⁻⁶ cm/s and the Papp at 2 h, 1 μM ([3]; fluorescein 1 μM + nano-bubble water (PS80) 2×10^8 bubbles, ultrasound 100 mW/cm^2, 1 MHz, 10 sec) was 11.2 ×10⁻⁶ cm/s. The Papp at 2 h, 1 μM ([3]; fluorescein 1 μM + nano-bubble water (PS80) 2×10^8 bubbles, ultrasound 250 mW/cm^2, 1 MHz, 10 sec) was 10.6 ×10⁻⁶ cm/s, the Papp at 2 h, 1 μM ([3]; fluorescein 1 μM + nano-bubble water (PS80) 2×10^8 bubbles, ultrasound 500 mW/cm^2, 1 MHz, 10 sec) was 12.7 ×10⁻⁶ cm/s and the “BBB permeability compared with the control” value [4] was “clear promotion of BBB permeability”. It also gave a Papp at 2 h, 1 μM [5, 7] of 1.79 ×10⁻⁶ cm/s and a Papp at 2 h, 1 μM ([5]; culture medium A (Reference Example 1 nano-bubble water, 2×10^8 bubbles), fluorescein 1 μM, ultrasound 100 mW/cm^2, 1 MHz, 10 sec) of 11.1 ×10⁻⁶ cm/s.

For “fluorescein isothiocyanate dextran [FITC dextran]”, the “brain transferability compared with the control” value [6] was “promotion of brain transferability”.
